Assay results from ChEMBL document CHEMBL2203114, “The Discovery of MK-4256, a Potent SSTR3 Antagonist as a Potential Treatment of Type 2 Diabetes” (ACS Med Chem Lett, 2012).
Calls of active or inactive are those of the source. The calls are words filed in the database; no cut-off is given here.

Legend:
[1] = biological target: Somatostatin receptor type 3 (Mus musculus) (UniProt P30935); assay: Inhibition of mouse SSTR3 transfected in CHO cells assessed as inhibition of SRIF-induced reduction of cAMP accumulation after 45 mins relative to control; format: functional, cell-based; set-up: concentration or dose not given beside the values
Chain of Somatostatin receptor type 3 (Mus musculus) (P30935 whole entry): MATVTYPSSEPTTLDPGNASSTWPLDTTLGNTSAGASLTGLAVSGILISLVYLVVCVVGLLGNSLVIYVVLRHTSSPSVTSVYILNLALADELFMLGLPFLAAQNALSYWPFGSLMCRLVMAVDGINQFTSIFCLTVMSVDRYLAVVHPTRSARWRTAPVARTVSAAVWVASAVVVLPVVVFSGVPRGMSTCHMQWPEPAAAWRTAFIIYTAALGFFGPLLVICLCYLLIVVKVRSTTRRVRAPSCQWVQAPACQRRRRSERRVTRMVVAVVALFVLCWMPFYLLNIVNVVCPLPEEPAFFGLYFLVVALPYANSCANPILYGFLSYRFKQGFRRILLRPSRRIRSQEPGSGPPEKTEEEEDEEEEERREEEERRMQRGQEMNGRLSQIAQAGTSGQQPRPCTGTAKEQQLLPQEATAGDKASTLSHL

[2] = Plasma concentration in C57BL/6 mouse at 10 mg/kg, po measured after 2.5 hrs; format: ADME, organism-based; set-up: dose 10 mg/kg, route oral
Mus musculus [3] = assay: Antidiabetic activity in C57BL/6 mouse assessed as reduction of glucose excursion at 10 mg/kg, po by ipGTT; format: functional; set-up: scale not given: the % may be the effect or the level left
[4] = biological target: Voltage-gated inwardly rectifying potassium channel KCNH2 (Homo sapiens, UniProt Q12809)
Chain of Voltage-gated inwardly rectifying potassium channel KCNH2 (Q12809 whole entry): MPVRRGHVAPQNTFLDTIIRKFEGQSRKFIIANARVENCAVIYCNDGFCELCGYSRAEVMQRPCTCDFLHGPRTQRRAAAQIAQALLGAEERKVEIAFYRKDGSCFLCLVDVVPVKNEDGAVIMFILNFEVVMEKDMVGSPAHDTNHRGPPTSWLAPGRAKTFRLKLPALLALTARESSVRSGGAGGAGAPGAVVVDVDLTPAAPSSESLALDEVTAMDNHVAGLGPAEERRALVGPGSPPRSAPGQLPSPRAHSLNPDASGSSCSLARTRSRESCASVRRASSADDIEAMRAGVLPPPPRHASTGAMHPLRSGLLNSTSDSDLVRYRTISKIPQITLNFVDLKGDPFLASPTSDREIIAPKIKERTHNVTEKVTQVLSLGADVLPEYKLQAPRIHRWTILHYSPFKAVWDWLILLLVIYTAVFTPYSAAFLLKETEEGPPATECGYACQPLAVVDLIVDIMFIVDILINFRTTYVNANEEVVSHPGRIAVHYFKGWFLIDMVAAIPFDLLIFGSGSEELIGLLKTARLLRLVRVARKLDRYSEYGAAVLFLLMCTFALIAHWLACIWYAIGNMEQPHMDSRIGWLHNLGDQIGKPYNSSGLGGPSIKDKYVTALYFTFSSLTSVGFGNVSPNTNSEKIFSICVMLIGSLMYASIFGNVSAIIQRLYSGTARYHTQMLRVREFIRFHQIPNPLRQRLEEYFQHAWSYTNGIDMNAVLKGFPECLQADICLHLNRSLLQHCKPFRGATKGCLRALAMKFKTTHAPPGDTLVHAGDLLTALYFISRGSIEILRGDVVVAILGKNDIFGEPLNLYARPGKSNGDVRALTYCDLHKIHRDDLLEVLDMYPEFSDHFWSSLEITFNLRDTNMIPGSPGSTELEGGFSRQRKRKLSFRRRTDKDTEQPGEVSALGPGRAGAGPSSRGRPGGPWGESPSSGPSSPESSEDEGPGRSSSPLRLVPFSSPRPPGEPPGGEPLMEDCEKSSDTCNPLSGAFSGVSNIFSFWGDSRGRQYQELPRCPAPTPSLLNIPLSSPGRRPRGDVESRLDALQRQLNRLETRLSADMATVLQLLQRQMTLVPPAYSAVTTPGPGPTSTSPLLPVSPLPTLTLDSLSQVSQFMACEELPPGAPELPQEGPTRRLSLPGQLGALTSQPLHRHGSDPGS
Description: Displacement of radiolabeled MK-499 from human ERG channel

[5] = biological target: T1, Somatostatin receptor type 3 (Mus musculus, UniProt P30935)
T1 sequence (P30935 whole entry): as the sequence (P30935 whole entry) above

[6] = biological target: T2, Somatostatin receptor type 3 (Homo sapiens, UniProt P32745)
T2 sequence (P32745 whole entry): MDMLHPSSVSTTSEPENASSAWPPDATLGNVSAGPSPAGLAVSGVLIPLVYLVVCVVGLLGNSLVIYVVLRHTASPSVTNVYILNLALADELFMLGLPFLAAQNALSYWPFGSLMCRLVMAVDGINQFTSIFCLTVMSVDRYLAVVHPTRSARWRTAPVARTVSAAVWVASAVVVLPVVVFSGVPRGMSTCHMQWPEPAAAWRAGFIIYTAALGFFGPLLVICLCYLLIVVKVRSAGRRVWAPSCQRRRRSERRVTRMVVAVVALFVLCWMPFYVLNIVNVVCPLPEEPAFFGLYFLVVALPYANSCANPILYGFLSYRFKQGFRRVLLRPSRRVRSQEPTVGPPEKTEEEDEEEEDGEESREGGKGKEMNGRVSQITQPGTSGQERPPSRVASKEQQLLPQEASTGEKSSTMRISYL
Description: Inhibition of human SSTR3 transfected in CHO cells assessed as inhibition of SRIF-induced reduction of cAMP accumulation after 45 mins

[7] = biological target: T1, Somatostatin receptor type 3; assay: biochemical
Description: Displacement of [125I]SS-28 from mouse SSTR3 transfected in CHO cells after 60 to 90 mins

[8] = biological target: T2, Somatostatin receptor type 3; assay: biochemical
Description: Displacement of [125I]SS-28 from human SSTR3 transfected in CHO cells after 60 to 90 mins

Mus musculus [9] = assay: Antidiabetic activity in C57BL/6 mouse assessed as reduction of glucose excursion at 1 mg/kg, po by OGTT; format: functional; set-up: scale not given: the % may be the effect or the level left
[10] = Volume of distribution at steady state in rat at 2 mg/kg, po and 1 mg/kg, iv; conditions: in vivo
[11] = Clearance in rat at 1 mg/kg, iv; conditions: in vivo
[12] = Half life in rat at 1 mg/kg, iv; conditions: in vivo
[13] = Volume of distribution at steady state in mouse at 10 mg/kg, po and 4 mg/kg, iv; conditions: in vivo
[14] = Clearance in mouse at 4 mg/kg, iv; conditions: in vivo
[15] = Half life in mouse at 4 mg/kg, iv; conditions: in vivo
in vivo [16] = conditions: rat, po, 2 mg/kg
in vivo [17] = conditions: rat, plasma, po, 2 mg/kg
in vivo [18] = conditions: mouse, po, 10 mg/kg
in vivo [19] = conditions: mouse, plasma, po, 10 mg/kg
Mus musculus [20] = assay: Antidiabetic activity in C57BL/6N mouse assessed as reduction of blood glucose level at 0.01 to 1 mg/kg, po measured over 5 hrs; format: functional, organism-based
Mus musculus [21] = assay: Antidiabetic activity in SSTR3-knockout mouse assessed as reduction of blood glucose excursion at 1 mg/kg by OGTT; format: functional; set-up: scale not given: the % may be the effect or the level left
Mus musculus [22] = assay: Antidiabetic activity in C57BL/6N mouse assessed as reduction of blood glucose excursion at 1 mg/kg by OGTT ( Rvb = 91%); format: functional
Mus musculus [23] = assay: Antidiabetic activity in po dosed C57BL/6 mouse assessed as reduction of glucose excursion by OGTT; format: functional, organism-based
[24] = biological target: Somatostatin receptor type 5 (Homo sapiens) (UniProt P35346); assay: Inhibition of human SSTR5 transfected in CHO cells assessed as inhibition of SRIF-induced reduction of cAMP accumulation at 5 uM after 45 mins; format: functional, cell-based
Chain of Somatostatin receptor type 5 (Homo sapiens) (P35346 whole entry): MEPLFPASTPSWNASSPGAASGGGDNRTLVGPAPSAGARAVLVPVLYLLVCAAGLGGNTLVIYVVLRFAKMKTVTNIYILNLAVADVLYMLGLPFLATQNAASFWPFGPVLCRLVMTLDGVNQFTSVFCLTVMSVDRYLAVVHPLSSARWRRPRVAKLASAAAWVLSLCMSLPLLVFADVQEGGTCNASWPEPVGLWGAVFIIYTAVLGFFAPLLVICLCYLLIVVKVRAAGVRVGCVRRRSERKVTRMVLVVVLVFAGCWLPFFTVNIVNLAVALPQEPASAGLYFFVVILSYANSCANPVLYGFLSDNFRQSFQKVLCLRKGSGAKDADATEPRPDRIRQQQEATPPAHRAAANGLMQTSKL

[25] = biological target: Somatostatin receptor type 4 (Homo sapiens) (UniProt P31391); conditions: CHO, 20 uM
Chain of Somatostatin receptor type 4 (Homo sapiens) (P31391 whole entry): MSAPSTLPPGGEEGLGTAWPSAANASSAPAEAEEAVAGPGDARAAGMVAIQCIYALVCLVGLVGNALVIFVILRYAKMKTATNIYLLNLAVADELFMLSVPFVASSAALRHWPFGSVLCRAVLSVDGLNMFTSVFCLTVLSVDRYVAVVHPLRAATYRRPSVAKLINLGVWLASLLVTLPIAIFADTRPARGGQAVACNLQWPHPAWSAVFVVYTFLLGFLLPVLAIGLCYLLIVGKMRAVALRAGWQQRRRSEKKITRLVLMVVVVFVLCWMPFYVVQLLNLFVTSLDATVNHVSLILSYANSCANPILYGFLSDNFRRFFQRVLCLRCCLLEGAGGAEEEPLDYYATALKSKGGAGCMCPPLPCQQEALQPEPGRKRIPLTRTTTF

Mus musculus [26] = assay: Antidiabetic activity in C57BL/6N mouse assessed as reduction of blood glucose level at 10 mg/kg, po measured after 60 mins post administration; format: functional, organism-based; set-up: dose 10 mg/kg
[27] = Volume of distribution at steady state in rhesus monkey at 1 mg/kg, iv and 2 mg/kg, po; conditions: in vivo
[28] = Clearance in rhesus monkey at 1 mg/kg, iv; conditions: in vivo
[29] = Half life in rhesus monkey at 1 mg/kg, iv; conditions: in vivo
[30] = Volume of distribution at steady state in dog at 1 mg/kg, iv and 2 mg/kg, po; conditions: in vivo
[31] = Clearance in dog at 1 mg/kg, iv; conditions: in vivo
[32] = Half life in dog at 1 mg/kg, iv; conditions: in vivo
in vivo [33] = conditions: rhesus monkey, po, 2 mg/kg
in vivo [34] = conditions: dog, po, 2 mg/kg
in vivo [35] = conditions: rhesus monkey, plasma, po, 2 mg/kg
in vivo [36] = conditions: dog, plasma, po, 2 mg/kg

SMILES | inhibition [1] | concentration at 2.5 h [2] | Activity (Mus musculus [3]) | Ki [4] | IC50 [5] | IC50 [6] | IC50 [7] | IC50 [8] | Activity (Mus musculus [9]) | also measured
Cn1cc([C@H]2N[C@@H](c3nc(-c4ccc(F)cc4)c[nH]3)Cc3c2[nH]c2ccccc32)cn1 | 67% | 1.2 µM | 91% | 300 nM | 4.4 nM | 9.3 nM | 4 nM | 6.9 nM |  | 
Fc1ccc(-c2c[nH]c([C@H]3Cc4c([nH]c5ccccc45)C(c4ccccc4)(c4ccccc4)N3)n2)cc1 | 101% |  |  | 44 nM | 2.4 nM | 7.3 nM |  | 0.76 nM |  | 
Fc1ccc(-c2c[nH]c([C@H]3Cc4c([nH]c5ccccc45)[C@@H](C4CCOCC4)N3)n2)cc1 | 108% | 4.6 µM | 79% |  | 26 nM | 5.7 nM | 1.7 nM | 2.8 nM |  | 
Cc1nc([C@H]2N[C@@H](c3nc(-c4ccc(F)cc4)c[nH]3)Cc3c2[nH]c2ccccc32)no1 | 103% |  |  | 385 nM | 18 nM | 19 nM |  | 19 nM |  | 
Cc1nc(C2(c3noc(C)n3)N[C@@H](c3nc(-c4ccc(F)cc4)c[nH]3)Cc3c2[nH]c2ccccc32)no1 | 133% |  |  |  | 1.3 nM | 1.2 nM | 0.59 nM | 0.97 nM | 71% | 
Cc1nc([C@]2(c3cnn(C)c3)N[C@H](c3nc(-c4ccc(F)cc4)c[nH]3)Cc3c2[nH]c2ccccc32)no1 | 68% |  |  |  |  |  |  |  | 80% | 
Cc1nc([C@@]2(c3cnn(C)c3)N[C@H](c3nc(-c4ccc(F)cc4)c[nH]3)Cc3c2[nH]c2ccccc32)no1 | 92% |  |  |  |  |  |  |  | 81% | 
Cc1nc([C@@]2(c3cnn(C)c3)N[C@@H](c3nc(-c4ccc(F)cc4)c[nH]3)Cc3c2[nH]c2ccccc32)no1 | 130% |  |  |  |  |  |  |  | 63% | 
Cn1cc([C@@H]2N[C@@H](c3nc(-c4ccc(F)cc4)c[nH]3)Cc3c2[nH]c2ccccc32)cn1 | 66% | 1.6 µM | 84% | 2190 nM | 26 nM | 33 nM | 4.8 nM | 7.2 nM |  | Vd [10]: 4.59 L/kg; clearance [11]: 1.52 L/h/kg; half-life [12]: 2.26 h; Vd [13]: 10.8 L/kg; clearance [14]: 5.98 L/h/kg; half-life [15]: 2.24 h; bioavailability (in vivo [16]): 47%; AUC(0-t) (in vivo [17]): 1.38 µM·h; bioavailability (in vivo [18]): 100%; AUC(0-t) (in vivo [19]): 4.11 µM·h
Cc1nc([C@]2(c3cnn(C)c3)N[C@@H](c3nc(-c4ccc(F)cc4)c[nH]3)Cc3c2[nH]c2ccccc32)no1 | 87% |  |  |  |  |  |  |  | 109% | Activity (Mus musculus [20]): inactive; Activity (Mus musculus [21]): 28%; inhibition in vivo at 1 mg/kg (Mus musculus [22]): 112%; Activity (Mus musculus [23]): Dose-dependent effect; inhibition [24]: 34%; inhibition [25]: 42%
Cn1cc(C2(c3cnn(C)c3)N[C@@H](c3nc(-c4ccc(F)cc4)c[nH]3)Cc3c2[nH]c2ccccc32)cn1 | 113% |  |  |  | 0.48 nM | 0.7 nM | 0.46 nM | 0.74 nM | 68% | 
Cc1cnc(C(=O)NCCc2ccc(S(=O)(=O)NC(=O)NC3CCCCC3)cc2)cn1 |  |  |  |  |  |  |  |  |  | Activity (Mus musculus [26]): Active
c1ccc(-c2c[nH]c([C@H]3Cc4c([nH]c5ccccc45)[C@@H](C4CCOCC4)N3)n2)cc1 | 98% | 3.8 µM | 75% |  |  | 11 nM |  |  |  | 
Cc1nc([C@@H]2N[C@@H](c3nc(-c4ccc(F)cc4)c[nH]3)Cc3c2[nH]c2ccccc32)no1 | 92% | 0.2 µM | 87% | 2210 nM | 29 nM | 58 nM | 8.1 nM | 9.2 nM |  | Vd [27]: 1.75 L/kg; clearance [28]: 0.167 L/h/kg; half-life [29]: 8.08 h; Vd [30]: 0.87 L/kg; clearance [31]: 0.107 L/h/kg; half-life [32]: 6.69 h; Vd [10]: 5.83 L/kg; clearance [11]: 0.58 L/h/kg; half-life [12]: 8.14 h; Vd [13]: 7.21 L/kg; clearance [14]: 2.39 L/h/kg; half-life [15]: 2.58 h; bioavailability (in vivo [33]): 51%; bioavailability (in vivo [34]): 67%; AUC(0-t) (in vivo [35]): 12.4 µM·h; bioavailability (in vivo [16]): 58%; AUC(0-t) (in vivo [17]): 4.36 µM·h; bioavailability (in vivo [18]): 76%; AUC(0-t) (in vivo [19]): 7.73 µM·h; AUC(0-t) (in vivo [36]): 27.6 µM·h
